Legend:
[1] = Clearance in Sprague-Dawley rat at 1 mg/ml, iv; format: ADME, organism-based; conditions: in vivo
Cytochrome P450 3A4 = Cytochrome P450 3A4 (Homo sapiens, UniProt P08684); test: Inhibition of CYP3A4 (unknown origin); format: ADME
[2] = target: T1, Serine/threonine-protein kinase PLK4 (Homo sapiens, UniProt O00444); test: Inhibition of human PLK4 by radiometric assay
T1 sequence (O00444 whole entry): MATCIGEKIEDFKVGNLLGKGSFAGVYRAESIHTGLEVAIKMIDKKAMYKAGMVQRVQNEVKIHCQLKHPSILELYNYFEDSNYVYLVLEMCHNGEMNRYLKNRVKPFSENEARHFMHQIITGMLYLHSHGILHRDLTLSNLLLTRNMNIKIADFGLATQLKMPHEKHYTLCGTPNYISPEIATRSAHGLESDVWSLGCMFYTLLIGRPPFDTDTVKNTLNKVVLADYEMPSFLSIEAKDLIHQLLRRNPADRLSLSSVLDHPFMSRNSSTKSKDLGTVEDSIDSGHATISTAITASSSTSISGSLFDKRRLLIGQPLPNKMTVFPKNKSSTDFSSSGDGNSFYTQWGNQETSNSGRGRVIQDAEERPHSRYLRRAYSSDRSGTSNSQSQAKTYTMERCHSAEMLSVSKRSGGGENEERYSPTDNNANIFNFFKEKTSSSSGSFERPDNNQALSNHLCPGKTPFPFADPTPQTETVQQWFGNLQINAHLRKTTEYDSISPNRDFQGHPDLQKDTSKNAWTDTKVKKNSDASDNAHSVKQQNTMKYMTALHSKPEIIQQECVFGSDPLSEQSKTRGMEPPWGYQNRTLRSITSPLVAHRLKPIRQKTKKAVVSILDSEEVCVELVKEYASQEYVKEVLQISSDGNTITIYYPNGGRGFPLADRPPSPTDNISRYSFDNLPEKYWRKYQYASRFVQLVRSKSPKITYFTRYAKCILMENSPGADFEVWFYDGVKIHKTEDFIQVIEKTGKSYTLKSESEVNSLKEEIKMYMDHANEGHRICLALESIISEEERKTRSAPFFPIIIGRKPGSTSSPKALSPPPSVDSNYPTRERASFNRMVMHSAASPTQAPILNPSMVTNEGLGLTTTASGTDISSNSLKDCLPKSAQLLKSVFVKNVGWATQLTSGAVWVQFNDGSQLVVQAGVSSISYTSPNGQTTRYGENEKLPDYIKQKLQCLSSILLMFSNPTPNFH

[3] = Half life in rat microsomes; format: ADME, Microsome
[4] = Oral bioavailability in Sprague-Dawley rat; format: ADME, organism-based; conditions: in vivo
[5] = AUC (0 to infinity) in Sprague-Dawley rat at 1 mg/ml, iv; format: ADME, organism-based; parameters: dose 1 mg/ml, time infinity, route intravenous; conditions: in vivo
[6] = Cmax in CD-1 nude mouse at 100 mg/ml, po; format: ADME, organism-based; parameters: dose 100 mg/ml, route oral; conditions: in vivo
MDA-MB-468 = test: Antiproliferative activity against human MDA-MB-468 cells; format: functional
[7] = Cmax in CD-1 nude mouse at 70 mg/ml, po; format: ADME, organism-based; parameters: dose 70 mg/ml, route oral; conditions: in vivo
[8] = Volume of distribution at steady state in Sprague-Dawley rat at 1 mg/ml, iv; format: ADME, organism-based; conditions: in vivo, read-out: Vdss
[9] = target: MAP kinase-activated protein kinase 2 (Homo sapiens) (UniProt P49137); test: Inhibition of recombinant human N-terminal GST-tagged MAPKAPK2 (46 to 400 residues) expressed in Escherichia coli at 1 uM by radiometric assay relative to control
[10] = Half life in human microsomes; format: ADME, Microsome
[11] = AUC (0 to last) in CD-1 nude mouse at 10 mg/ml, po; format: ADME, organism-based; parameters: dose 10 mg/ml, route oral, time 0 - last; conditions: in vivo
[12] = AUC (0 to last) in CD-1 nude mouse at 70 mg/ml, po; format: ADME, organism-based; parameters: dose 70 mg/ml, time 0 - last, route oral; conditions: in vivo
[13] = Half life in Sprague-Dawley rat at 1 mg/ml, iv; format: ADME, organism-based; conditions: in vivo
[14] = Cmax in Sprague-Dawley rat at 5 mg/ml, iv; format: ADME, organism-based; parameters: dose 5 mg/ml, route intravenous; conditions: in vivo
[15] = Protein binding in mouse plasma; format: ADME, cell-free; conditions: read-out: PPB (converted)
[16] = Protein binding in human plasma; format: ADME, cell-free; conditions: read-out: PPB (converted)
[17] = Half life in mouse microsomes; format: ADME, Microsome
[18] = AUC (0 to infinity) in Sprague-Dawley rat at 5 mg/ml, iv; format: ADME, organism-based; parameters: dose 5 mg/ml, route intravenous, time infinity; conditions: in vivo
[19] = Half life in Sprague-Dawley rat at 5 mg/ml, iv; format: ADME, organism-based; conditions: in vivo
[20] = AUC (0 to last) in CD-1 nude mouse at 25 mg/ml, po; format: ADME, organism-based; parameters: dose 25 mg/ml, time 0 - last, route oral; conditions: in vivo
MDA-MB-231 = test: Antiproliferative activity against human MDA-MB-231 cells; format: functional
[21] = target: T2, Dual specificity protein kinase TTK (Homo sapiens, UniProt P33981); test: Competitive inhibition of TTK (unknown origin) by double reciprocal plot analysis in presence of ATP
T2 sequence (P33981 whole entry): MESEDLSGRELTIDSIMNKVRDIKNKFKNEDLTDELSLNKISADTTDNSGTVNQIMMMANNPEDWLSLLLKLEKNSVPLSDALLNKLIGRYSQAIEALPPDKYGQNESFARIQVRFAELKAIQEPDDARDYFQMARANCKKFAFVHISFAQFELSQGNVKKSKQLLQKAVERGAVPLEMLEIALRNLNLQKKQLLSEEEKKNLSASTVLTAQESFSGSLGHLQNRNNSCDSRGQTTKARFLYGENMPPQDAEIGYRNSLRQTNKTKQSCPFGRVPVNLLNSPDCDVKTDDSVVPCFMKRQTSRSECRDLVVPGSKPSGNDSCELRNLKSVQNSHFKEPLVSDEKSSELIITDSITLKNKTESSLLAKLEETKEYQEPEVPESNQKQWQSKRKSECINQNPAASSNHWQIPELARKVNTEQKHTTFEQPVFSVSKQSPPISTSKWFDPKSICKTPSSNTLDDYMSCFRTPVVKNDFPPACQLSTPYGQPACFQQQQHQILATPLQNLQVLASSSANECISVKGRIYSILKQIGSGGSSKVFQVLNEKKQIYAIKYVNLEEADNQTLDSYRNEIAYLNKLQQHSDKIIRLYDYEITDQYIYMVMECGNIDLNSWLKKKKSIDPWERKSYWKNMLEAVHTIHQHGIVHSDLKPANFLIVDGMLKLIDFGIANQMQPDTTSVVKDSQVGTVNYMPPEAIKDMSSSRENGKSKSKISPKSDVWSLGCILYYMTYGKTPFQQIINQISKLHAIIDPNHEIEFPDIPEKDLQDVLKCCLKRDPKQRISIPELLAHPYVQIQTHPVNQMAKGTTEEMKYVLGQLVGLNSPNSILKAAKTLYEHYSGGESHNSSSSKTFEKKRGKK

[22] = Antiproliferative activity against human HCT116 cells; format: functional; conditions: HCT-116
[23] = target: Rho-associated protein kinase 2 (Homo sapiens) (UniProt O75116); test: Inhibition of recombinant human N-terminal His6-tagged ROCK2 (11 to 552 residues) expressed in baculovirus infected Sf21 cells at 1 uM by radiometric assay relative to control
[24] = AUC (0 to last) in CD-1 nude mouse at 55 mg/ml, po; format: ADME, organism-based; parameters: dose 55 mg/ml, route oral, time 0 - last; conditions: in vivo
[25] = Cmax in CD-1 nude mouse at 25 mg/ml, po; format: ADME, organism-based; parameters: dose 25 mg/ml, route oral; conditions: in vivo

Sequence of MAP kinase-activated protein kinase 2 (Homo sapiens) (P49137 whole entry, looked up, the tested form may be a part): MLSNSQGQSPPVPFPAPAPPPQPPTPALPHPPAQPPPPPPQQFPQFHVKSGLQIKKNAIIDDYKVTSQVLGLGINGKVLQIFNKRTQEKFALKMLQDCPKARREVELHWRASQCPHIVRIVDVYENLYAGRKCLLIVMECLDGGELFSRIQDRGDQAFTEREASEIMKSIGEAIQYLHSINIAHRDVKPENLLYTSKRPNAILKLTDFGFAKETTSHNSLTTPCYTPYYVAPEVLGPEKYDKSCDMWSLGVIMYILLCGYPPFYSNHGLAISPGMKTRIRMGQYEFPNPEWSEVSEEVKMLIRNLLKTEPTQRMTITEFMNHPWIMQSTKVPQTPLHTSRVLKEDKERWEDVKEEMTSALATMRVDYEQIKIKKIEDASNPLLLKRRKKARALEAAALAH
Sequence of Cytochrome P450 3A4 (P08684 whole entry): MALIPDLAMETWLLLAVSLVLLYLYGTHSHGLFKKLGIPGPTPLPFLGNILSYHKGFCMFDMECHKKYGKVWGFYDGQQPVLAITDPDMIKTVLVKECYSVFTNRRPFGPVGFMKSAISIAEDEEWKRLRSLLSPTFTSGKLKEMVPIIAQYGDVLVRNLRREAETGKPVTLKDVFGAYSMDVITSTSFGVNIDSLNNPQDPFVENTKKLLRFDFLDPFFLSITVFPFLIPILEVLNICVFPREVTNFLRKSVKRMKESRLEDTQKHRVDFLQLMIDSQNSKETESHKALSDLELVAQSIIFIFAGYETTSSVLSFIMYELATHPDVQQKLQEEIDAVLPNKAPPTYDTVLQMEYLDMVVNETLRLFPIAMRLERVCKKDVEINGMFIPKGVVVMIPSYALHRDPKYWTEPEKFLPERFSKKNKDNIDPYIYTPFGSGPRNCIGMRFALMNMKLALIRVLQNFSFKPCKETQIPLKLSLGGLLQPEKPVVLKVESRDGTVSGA
Sequence of Rho-associated protein kinase 2 (Homo sapiens) (O75116 whole entry, looked up, the tested form may be a part): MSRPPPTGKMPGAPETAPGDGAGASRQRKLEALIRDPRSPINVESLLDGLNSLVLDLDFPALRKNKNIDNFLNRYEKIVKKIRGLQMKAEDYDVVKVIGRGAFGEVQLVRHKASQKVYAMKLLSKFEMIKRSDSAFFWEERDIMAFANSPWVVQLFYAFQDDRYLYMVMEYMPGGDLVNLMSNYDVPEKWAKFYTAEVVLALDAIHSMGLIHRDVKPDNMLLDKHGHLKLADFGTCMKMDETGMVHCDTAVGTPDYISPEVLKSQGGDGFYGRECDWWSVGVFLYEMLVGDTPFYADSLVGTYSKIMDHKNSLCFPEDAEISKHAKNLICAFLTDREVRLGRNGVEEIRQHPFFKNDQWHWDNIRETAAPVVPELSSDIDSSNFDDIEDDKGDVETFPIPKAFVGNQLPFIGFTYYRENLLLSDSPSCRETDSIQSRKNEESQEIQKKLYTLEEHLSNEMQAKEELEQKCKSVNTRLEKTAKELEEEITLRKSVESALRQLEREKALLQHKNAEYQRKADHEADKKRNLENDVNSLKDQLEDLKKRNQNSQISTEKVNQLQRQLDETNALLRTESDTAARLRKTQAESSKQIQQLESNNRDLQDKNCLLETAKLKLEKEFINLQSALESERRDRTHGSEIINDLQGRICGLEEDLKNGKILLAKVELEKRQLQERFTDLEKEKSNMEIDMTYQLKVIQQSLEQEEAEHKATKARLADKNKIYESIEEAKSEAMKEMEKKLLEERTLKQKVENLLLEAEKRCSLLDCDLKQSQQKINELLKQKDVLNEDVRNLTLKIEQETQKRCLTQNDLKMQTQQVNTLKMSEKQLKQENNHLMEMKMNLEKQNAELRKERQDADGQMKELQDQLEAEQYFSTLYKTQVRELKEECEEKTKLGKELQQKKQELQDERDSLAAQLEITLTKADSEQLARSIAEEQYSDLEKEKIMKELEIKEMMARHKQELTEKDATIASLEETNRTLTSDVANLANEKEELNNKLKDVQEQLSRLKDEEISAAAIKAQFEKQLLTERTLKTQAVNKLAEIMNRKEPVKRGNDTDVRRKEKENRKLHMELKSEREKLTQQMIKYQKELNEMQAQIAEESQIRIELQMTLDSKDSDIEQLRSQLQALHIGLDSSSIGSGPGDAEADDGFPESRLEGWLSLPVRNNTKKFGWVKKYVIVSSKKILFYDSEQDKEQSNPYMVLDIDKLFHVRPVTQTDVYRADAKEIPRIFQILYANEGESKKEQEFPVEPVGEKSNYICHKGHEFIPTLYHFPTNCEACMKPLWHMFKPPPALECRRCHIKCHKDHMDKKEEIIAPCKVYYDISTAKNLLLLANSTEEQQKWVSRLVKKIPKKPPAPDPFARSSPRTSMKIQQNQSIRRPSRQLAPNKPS

**Q.** For Cc1cc(-c2cnn3c(NCC4CCOCC4)nc(Oc4ccccc4)nc23)ccc1C(=O)NC1CC1, which clearance [1] is on record?
**A.** 19 mL/min/kg

**Q.** And the IC50 (Cytochrome P450 3A4)?
**A.** 800 nM

**Q.** And the IC50 [2]?
**A.** > 50000 nM

**Q.** What about the half-life [3] of the same compound?
**A.** > 1 h

**Q.** And the bioavailability [4]?
**A.** 97%

**Q.** What about the AUC(0-inf) [5] of the same compound?
**A.** 871 ng·h/mL

**Q.** What about the Cmax [6] of the same compound?
**A.** 2900 ng/mL

**Q.** And the GI50 (MDA-MB-468)?
**A.** 160 nM

**Q.** And the Cmax [7]?
**A.** 7700 ng/mL

**Q.** And the Vd [8]?
**A.** 2.8 L

**Q.** What about the inhibition [9] of the same compound?
**A.** -8%

**Q.** And the half-life [10]?
**A.** > 1 h

**Q.** What about the AUC(0-t) [11] of the same compound?
**A.** 1530 ng·h/mL

**Q.** And the AUC(0-t) [12]?
**A.** 53000 ng·h/mL

**Q.** And the half-life [13]?
**A.** 1.53 h

**Q.** And the Cmax [14]?
**A.** 841 ng/mL

**Q.** And the fraction unbound [15]?
**A.** 0.016

**Q.** What about the fraction unbound [16] of the same compound?
**A.** 0.028

**Q.** And the half-life [17]?
**A.** 0.767 h

**Q.** And the AUC(0-inf) [18]?
**A.** 4230 ng·h/mL

**Q.** What about the half-life [19] of the same compound?
**A.** 1.7 h

**Q.** What about the AUC(0-t) [20] of the same compound?
**A.** 19100 ng·h/mL

**Q.** What about the GI50 (MDA-MB-231) of the same compound?
**A.** 32 nM

**Q.** What about the Ki [21] of the same compound?
**A.** 0.77 nM

**Q.** And the GI50 [22]?
**A.** 13 nM

**Q.** And the inhibition [23]?
**A.** 0%

**Q.** What about the AUC(0-t) [24] of the same compound?
**A.** 38100 ng·h/mL

**Q.** What about the Cmax [25] of the same compound?
**A.** 3200 ng/mL
